Laboratory results reported in ChEMBL document CHEMBL1158080, “Dehydrozingerone, chalcone, and isoeugenol analogues as in vitro anticancer agents” (J Nat Prod, 2006).
Values after ≈ are worked out from the molar mass of the structure shown.

system: KB; test: Cytotoxicity against human KB cells after 2 days by sulforhodamine B assay; format: functional, cell-based; conditions: 48 h

| SMILES | IC50 |
| --- | --- |
| COc1cc(/C=C/C(C)=O)ccc1O [DEHYDROZINGERONE] | > 10 µg/mL |
| C/C=C/c1ccc(OC)c(OC)c1 [METHYLISOEUGENOL] | > 10 µg/mL |
| COc1cc(/C=C/C(C)=O)ccc1OC/C=C(\C)CCC=C(C)C | 2.2 µg/mL (≈ 6.7 µM) |
| C/C=C/c1ccc(OC/C=C(\C)CC/C=C(\C)CCC=C(C)C)c(OC)c1 | > 10 µg/mL |
| COc1cc(/C=C/C(=O)c2ccccc2)ccc1O | 3.5 µg/mL (≈ 13.8 µM) |
| CCOc1ccc(/C=C/C(C)=O)cc1OC | 5.5 µg/mL (≈ 25 µM) |
| COc1cccc(/C=C/C(=O)c2ccccc2)c1O | 2.4 µg/mL (≈ 9.44 µM) |
| CCCOc1ccc(/C=C/C(C)=O)cc1OC | 6.5 µg/mL (≈ 27.7 µM) |
| COc1cc(/C=C/C(C)=O)ccc1OCC=C(C)C | 5.7 µg/mL (≈ 21.9 µM) |
| COc1ccc(/C=C/C(=O)c2ccccc2)c(O)c1 | 2 µg/mL (≈ 7.87 µM) |
| COc1ccc(/C=C/C(C)=O)cc1O | 10 µg/mL (≈ 52 µM) |
| CCOc1cc(/C=C/C(C)=O)ccc1O | 7.7 µg/mL (≈ 37.3 µM) |
| CC(=O)/C=C/c1cccc(F)c1O | 2.1 µg/mL (≈ 11.7 µM) |
| COc1cc(/C=C/C(C)=O)ccc1OC/C=C(\C)CC/C=C(\C)CCC=C(C)C | 6.5 µg/mL (≈ 16.4 µM) |
| C/C=C/c1ccc(OCCC)c(OC)c1 | > 10 µg/mL |
| COc1cccc2c1C(=O)c1c(O)c3c(c(O)c1C2=O)C[C@@](O)(C(=O)CO)C[C@@H]3O[C@H]1C[C@H](N)[C@H](O)[C@H](C)O1 [DOXORUBICIN] | 0.1 µg/mL (≈ 0.184 µM) |
| C=CCOc1ccc(/C=C/C(C)=O)cc1OC | 6.8 µg/mL (≈ 29.3 µM) |
| COc1ccc(/C=C/C(C)=O)c(O)c1 | 3.8 µg/mL (≈ 19.8 µM) |
| C/C=C/COc1ccc(/C=C/C)cc1OC | > 10 µg/mL |
| C=CCOc1ccc(/C=C/C)cc1OC | > 10 µg/mL |
| CCOc1cccc(/C=C/C(C)=O)c1O | 2 µg/mL (≈ 9.7 µM) |
| COc1ccc(/C=C/C(C)=O)cc1OC | 8.6 µg/mL (≈ 41.7 µM) |
| COc1ccc(/C=C/C(=O)c2ccccc2)cc1O | 1 µg/mL (≈ 3.93 µM) |
| C/C=C/c1ccc(OCC=C(C)C)c(OC)c1 | > 10 µg/mL |
| COc1cccc(/C=C/C(C)=O)c1O | 3.8 µg/mL (≈ 19.8 µM) |
| COc1cc(/C=C/C(=O)CC(=O)/C=C/c2ccc(O)c(OC)c2)ccc1O [CURCUMIN] | 5.5 µg/mL (≈ 14.9 µM) |
| C/C=C/c1ccc(OCCC(C)C)c(OC)c1 | > 10 µg/mL |
| COc1cc(/C=C/C(C)=O)ccc1OCCC(C)C | 3.6 µg/mL (≈ 13.7 µM) |
| COc1ccc(/C=C/C(C)=O)cc1F | 4.3 µg/mL (≈ 22.1 µM) |
| C/C=C/COc1ccc(/C=C/C(C)=O)cc1OC | 4.8 µg/mL (≈ 19.5 µM) |

system: KB; test: Cytotoxicity against multidrug-resistant human KB-VCR cells after 2 days by sulforhodamine B assay; format: functional, cell-based; conditions: 48 h

| SMILES | IC50 |
| --- | --- |
| COc1cc(/C=C/C(C)=O)ccc1O [DEHYDROZINGERONE] | > 10 µg/mL |
| C/C=C/c1ccc(OC)c(OC)c1 [METHYLISOEUGENOL] | > 10 µg/mL |
| COc1cc(/C=C/C(C)=O)ccc1OC/C=C(\C)CCC=C(C)C | 3.3 µg/mL (≈ 10 µM) |
| C/C=C/c1ccc(OC/C=C(\C)CC/C=C(\C)CCC=C(C)C)c(OC)c1 | > 10 µg/mL |
| COc1cc(/C=C/C(=O)c2ccccc2)ccc1O | 1.9 µg/mL (≈ 7.47 µM) |
| CCOc1ccc(/C=C/C(C)=O)cc1OC | 8 µg/mL (≈ 36.3 µM) |
| COc1cccc(/C=C/C(=O)c2ccccc2)c1O | 1.3 µg/mL (≈ 5.11 µM) |
| CCCOc1ccc(/C=C/C(C)=O)cc1OC | 4.2 µg/mL (≈ 17.9 µM) |
| COc1cc(/C=C/C(C)=O)ccc1OCC=C(C)C | 3.5 µg/mL (≈ 13.4 µM) |
| COc1ccc(/C=C/C(=O)c2ccccc2)c(O)c1 | 2 µg/mL (≈ 7.87 µM) |
| COc1ccc(/C=C/C(C)=O)cc1O | 8.2 µg/mL (≈ 42.7 µM) |
| CCOc1cc(/C=C/C(C)=O)ccc1O | 7.8 µg/mL (≈ 37.8 µM) |
| CC(=O)/C=C/c1cccc(F)c1O | 3 µg/mL (≈ 16.7 µM) |
| COc1cc(/C=C/C(C)=O)ccc1OC/C=C(\C)CC/C=C(\C)CCC=C(C)C | 7.4 µg/mL (≈ 18.7 µM) |
| C/C=C/c1ccc(OCCC)c(OC)c1 | > 10 µg/mL |
| COc1cccc2c1C(=O)c1c(O)c3c(c(O)c1C2=O)C[C@@](O)(C(=O)CO)C[C@@H]3O[C@H]1C[C@H](N)[C@H](O)[C@H](C)O1 [DOXORUBICIN] | 2.7 µg/mL (≈ 4.97 µM) |
| C=CCOc1ccc(/C=C/C(C)=O)cc1OC | 5 µg/mL (≈ 21.5 µM) |
| COc1ccc(/C=C/C(C)=O)c(O)c1 | 4 µg/mL (≈ 20.8 µM) |
| C/C=C/COc1ccc(/C=C/C)cc1OC | > 10 µg/mL |
| C=CCOc1ccc(/C=C/C)cc1OC | > 10 µg/mL |
| CCOc1cccc(/C=C/C(C)=O)c1O | 1.9 µg/mL (≈ 9.21 µM) |
| COc1ccc(/C=C/C(C)=O)cc1OC | 7.8 µg/mL (≈ 37.8 µM) |
| COc1ccc(/C=C/C(=O)c2ccccc2)cc1O | 1 µg/mL (≈ 3.93 µM) |
| C/C=C/c1ccc(OCC=C(C)C)c(OC)c1 | > 10 µg/mL |
| COc1cccc(/C=C/C(C)=O)c1O | 2 µg/mL (≈ 10.4 µM) |
| COc1cc(/C=C/C(=O)CC(=O)/C=C/c2ccc(O)c(OC)c2)ccc1O [CURCUMIN] | 3.1 µg/mL (≈ 8.42 µM) |
| C/C=C/c1ccc(OCCC(C)C)c(OC)c1 | > 10 µg/mL |
| COc1cc(/C=C/C(C)=O)ccc1OCCC(C)C | 3.2 µg/mL (≈ 12.2 µM) |
| COc1ccc(/C=C/C(C)=O)cc1F | 5 µg/mL (≈ 25.7 µM) |
| C/C=C/COc1ccc(/C=C/C(C)=O)cc1OC | 3.4 µg/mL (≈ 13.8 µM) |

system: A549; test: Cytotoxicity against human A549 cells after 2 days by sulforhodamine B assay; format: functional, cell-based; conditions: A549, 48 h

| SMILES | IC50 |
| --- | --- |
| COc1cc(/C=C/C(C)=O)ccc1O [DEHYDROZINGERONE] | > 10 µg/mL |
| COc1cc(/C=C/C(C)=O)ccc1OC/C=C(\C)CCC=C(C)C | 3.4 µg/mL (≈ 10.4 µM) |
| COc1cc(/C=C/C(=O)c2ccccc2)ccc1O | 2.3 µg/mL (≈ 9.04 µM) |
| CCOc1ccc(/C=C/C(C)=O)cc1OC | > 10 µg/mL |
| COc1cccc(/C=C/C(=O)c2ccccc2)c1O | 0.6 µg/mL (≈ 2.36 µM) |
| CCCOc1ccc(/C=C/C(C)=O)cc1OC | 5.8 µg/mL (≈ 24.8 µM) |
| COc1cc(/C=C/C(C)=O)ccc1OCC=C(C)C | 3.8 µg/mL (≈ 14.6 µM) |
| COc1ccc(/C=C/C(=O)c2ccccc2)c(O)c1 | 3.8 µg/mL (≈ 14.9 µM) |
| COc1ccc(/C=C/C(C)=O)cc1O | > 10 µg/mL |
| CCOc1cc(/C=C/C(C)=O)ccc1O | 8.5 µg/mL (≈ 41.2 µM) |
| CC(=O)/C=C/c1cccc(F)c1O | 3 µg/mL (≈ 16.7 µM) |
| COc1cc(/C=C/C(C)=O)ccc1OC/C=C(\C)CC/C=C(\C)CCC=C(C)C | 7.4 µg/mL (≈ 18.7 µM) |
| COc1cccc2c1C(=O)c1c(O)c3c(c(O)c1C2=O)C[C@@](O)(C(=O)CO)C[C@@H]3O[C@H]1C[C@H](N)[C@H](O)[C@H](C)O1 [DOXORUBICIN] | 0.1 µg/mL (≈ 0.184 µM) |
| C=CCOc1ccc(/C=C/C(C)=O)cc1OC | 5.8 µg/mL (≈ 25 µM) |
| COc1ccc(/C=C/C(C)=O)c(O)c1 | 3.5 µg/mL (≈ 18.2 µM) |
| CCOc1cccc(/C=C/C(C)=O)c1O | 2.3 µg/mL (≈ 11.2 µM) |
| COc1ccc(/C=C/C(C)=O)cc1OC | 8 µg/mL (≈ 38.8 µM) |
| COc1ccc(/C=C/C(=O)c2ccccc2)cc1O | 3.5 µg/mL (≈ 13.8 µM) |
| COc1cccc(/C=C/C(C)=O)c1O | 2.5 µg/mL (≈ 13 µM) |
| COc1cc(/C=C/C(=O)CC(=O)/C=C/c2ccc(O)c(OC)c2)ccc1O [CURCUMIN] | 5.2 µg/mL (≈ 14.1 µM) |
| COc1cc(/C=C/C(C)=O)ccc1OCCC(C)C | 7.2 µg/mL (≈ 27.4 µM) |
| COc1ccc(/C=C/C(C)=O)cc1F | 5.5 µg/mL (≈ 28.3 µM) |
| C/C=C/COc1ccc(/C=C/C(C)=O)cc1OC | 6.8 µg/mL (≈ 27.6 µM) |
